In brackets after ≈: the same amount, converted by molar mass. Like-named read-outs stand apart in the source and are kept apart here. Where a SMILES comes first, the peptide text is derived from it. Where no end group is shown, it is not given here. [ ]: non-standard residue; d: D form.
Experiments:
E. coli UB 1005 = experiment: microbe, parasite or virus in culture; assay type: cell-based, Escherichia coli
Procedure: (§1) The test strains, including Gram-negative E. coli ATCC25922, E. coli ATCC 1005, S. typhimurium C7731, P. aeruginosa ATCC 27853, S. Typhimurium 14028, Gram-positive S. aureus ATCC29213, S. aureus ATCC 25923, S. epidermidis ATCC 12228 and S. aureus 43300, were obtained from the School of Veterinary Medicine, Northeast Agricultural University (Harbin, China).
(§2) Briefly, the bacteria were incubated overnight at 37 °C with constant shaking at 220 rpm, then were transferred to new MH broth (MHB) medium until they reached the logarithmic phase of growth. The bacteria were then diluted to 10^5 (CFU)/mL in MHB. The peptides were dissolved and diluted in 0.01% acetic acid and 0.2% bovine serum albumin (BSA) at various concentrations (0.5–128 μM) in each well of sterile 96-well plates and incubated for 20 h at 37 °C. […] The test was repeated three times.

E. coli 25922 = experiment: microbe, parasite or virus in culture; assay type: cell-based, Escherichia coli
Procedure: as §1, §2

S. aureus 29213 = experiment: microbe, parasite or virus in culture; assay type: cell-based, Staphylococcus aureus
Procedure: as §1, §2

S. aureus 25923 = experiment: microbe, parasite or virus in culture; assay type: cell-based, Staphylococcus aureus
Procedure: as §1, §2

[1] = test system: all the 9 bacteria tested; experiment: Geometric mean of MICs, all 9 bacteria; assay type: cell-based; details: for GM MIC (range of Gram-negative and Gram-positive geometric means): Table 2; for tGM, geometric mean of the MICs against all the 9 bacteria: all 9 bacteria tested
Procedure: as §2

[2] = test system: gram-positive strains tested; experiment: organism not typed; assay type: cell-based
Procedure: as §2

[3] = test system: human red blood cells (hRBCs); experiment: Hemolysis assay; assay type: cell-based
Procedure: Figure 2 (A) Hemolytic activity of the engineered peptides against human red blood cells (hRBCs). The hRBCs were incubated with equal amounts of the respective peptides dissolved in PBS for 1 h at 37 °C. (B) Cytotoxicity of the engineered peptides against RAW264.7. […] Data shown are three independent experiments.
The hemolytic activity of the peptides is determined by measuring the amount of hemoglobin released during the lysis of human erythrocytes at different concentrations of AMPs. Briefly, fresh, healthy human red blood cells (hRBCs) were collected and then washed three times with phosphate-buffered saline (PBS) buffer (pH 7.2) and centrifuged at 1000× g for 5 min. Each 50 µL sample of hRBCs was incubated with 50 µL of the respective peptide dissolved in PBS in a well of a 96-well plate for 1 h at 37 °C. After incubation, the samples were centrifuged at 1000× g for 5 min and the supernatants (50 μL) were transferred to a new 96-well microplate. The release of hemoglobin was measured by monitoring the OD at 570 nm (Tecan, Salzburg, Austria). Negative (hRBCs without AMP treatment) and positive (hRBCs treated with 0.1% TritonX-100) controls were used. The concentration of peptide that caused 5% hemolysis was considered the minimal hemolysis concentration (MHC). The test was repeated three times. The percent hemolysis was calculated using the following formula:(2) Percent hemolysis=A−A0/At−A0× 100% A0 and At represent 0% and 100% hemolysis as measured in 10 mM PBS and 0.2% Triton X-100, respectively.

[4] = test system: gram-negative strains tested; experiment: Geometric mean of MICs, gram-negative strains; assay type: cell-based; details: 5 gram-negative strains; >128 apparently counted as 256; read-out: nGM (–), geometric mean of the MICs against gram-negative strains
Procedure: as §2

MRSA43300 = experiment: microbe, parasite or virus in culture; assay type: cell-based, Methicillin-resistant Staphylococcus aureus
Procedure: as §1, §2

S. typhimurium 7731 = experiment: microbe, parasite or virus in culture; assay type: cell-based
Procedure: as §1, §2

S. epidermidis 12228 = experiment: microbe, parasite or virus in culture; assay type: cell-based
Procedure: as §1, §2

P. aeruginosa 27853 = experiment: microbe, parasite or virus in culture; assay type: cell-based
Procedure: as §1, §2

S. typhimurium 14028 = experiment: microbe, parasite or virus in culture; assay type: cell-based
Procedure: as §1, §2

[5] = test system: Gram-positive and Gram-negative bacteria; experiment: Antimicrobial assay (MIC), statement over all strains; assay type: cell-based; details: all strains tested
Procedure: as §2

| Compound | MIC [4] [µM] | MIC (E. coli UB 1005; UB 1005, 20 h) [µM] | MIC (E. coli 25922; 25922, 20 h) [µM] | MIC (S. aureus 29213; 29213, 20 h) [µM] | MIC (S. aureus 25923; 25923, 20 h) [µM] | tGM, geometric mean of the MICs against all the 9 bacteria [1] [µM] | pGM (+), geometric mean of the MICs against gram-positive strains ([2]; 20 h) [µM] | MHC5, minimum hemolytic concentration that induced ≥5% hemolysis ([3]; red cells of human, 1 h) [µM] | MIC (MRSA43300; 20 h) [µM] | MIC (S. typhimurium 7731; 7731, 20 h) [µM] | MIC (S. epidermidis 12228; 12228, 20 h) [µM] | MIC (P. aeruginosa 27853; 27853, 20 h, read-out: MIC) [µM] | MIC (S. typhimurium 14028; 14028, 20 h) [µM] | further results |
| --- | --- | --- | --- | --- | --- | --- | --- | --- | --- | --- | --- | --- | --- | --- |
| O=C(N[C@H](CO)[C@H](O)c1ccc([N+](=O)[O-])cc1)C(Cl)Cl [CH, Chloramphenicol, reference compound] | 18.4 (≈ 5.95 µg/mL) | – | – | – | – | – | – | – | – | – | – | – | – | MIC (E. coli UB 1005; Escherichia coli, UB1005, E. coli UB 1005, MHB, 10^5 CFU/mL, 20 h 37 °C, repeated three times): 4 µM (≈ 1.29 µg/mL); MIC (E. coli 25922; Escherichia coli, E. coli 25922, MHB, 10^5 CFU/mL, 0.5–128 μM peptide, 20 h 37 °C, OD 492 nm, repeated three times): 16 µM (≈ 5.17 µg/mL); MIC (S. aureus 29213; Staphylococcus aureus, S. aureus 29213, MHB, 10^5 CFU/mL, 20 h 37 °C, repeated three times): 8 µM (≈ 2.59 µg/mL); MIC (S. aureus 25923; Staphylococcus aureus, S. aureus 25923, MHB, 10^5 CFU/mL, 20 h 37 °C, repeated three times): 32 µM (≈ 10.3 µg/mL); GM MIC (range of Gram-negative and Gram-positive geometric means) [1]: 18.4 to 22.6 µM; MIC ([1]; read-out: tGM, geometric mean of the MICs against all the 9 bacteria): 20.2 µM (≈ 6.53 µg/mL); MIC ([2]; read-out: pGM (+), geometric mean of the MICs against gram-positive strains): 22.6 µM (≈ 7.3 µg/mL); MHC5, minimum hemolytic concentration that induced ≥5% hemolysis ([3]; human red blood cells, PBS, 1 h at 37 °C, OD 570 nm, repeated three times): >128 µM; MIC (MRSA43300; Staphylococcus aureus, MRSA43300, MHB, 10^5 CFU/mL, 20 h 37 °C, repeated three times): 32 µM (≈ 10.3 µg/mL); MIC (S. typhimurium 7731; Salmonella enterica, S. typhimurium 7731, MHB, 10^5 CFU/mL, 20 h 37 °C, repeated three times): 8 µM (≈ 2.59 µg/mL); MIC (S. epidermidis 12228; Staphylococcus epidermidis, S. epidermidis 12228, MHB, 10^5 CFU/mL, 20 h 37 °C, repeated three times): 32 µM (≈ 10.3 µg/mL); MIC (P. aeruginosa 27853; Pseudomonas aeruginosa, 27853, 20 h): > 128 µM; MIC (S. typhimurium 14028; Salmonella enterica, S. typhimurium 14028, MHB, 10^5 CFU/mL, 20 h 37 °C, repeated three times): 16 µM (≈ 5.17 µg/mL) |
| CC[C@H](C)[C@H](N)C(=O)N[C@@H](CCCNC(=N)N)C(=O)N1CCC[C@@H]1C(=O)N[C@H](C(=O)N[C@@H](CCCNC(=N)N)C(=O)N1CCC[C@@H]1C(=O)O)[C@@H](C)CC [DIR1] (H-IR[dP]IR[dP]-OH) | 256 (≈ 192 µg/mL) | >128 | >128 | >128 | >128 | 256 | 256 | >128 | >128 | >128 | >128 | >128 | >128 | MIC in the presence of Gram-positive and Gram-negative bacteria [5]: greater than 128 μM |
| CC[C@H](C)[C@H](N)C(=O)N[C@@H](CCCNC(=N)N)C(=O)N[C@H](C(=O)N[C@@H](CCCNC(=N)N)C(=O)N1CCC[C@@H]1C(=O)N[C@H](C(=O)N[C@@H](CCCNC(=N)N)C(=O)N[C@H](C(=O)N[C@@H](CCCNC(=N)N)C(=O)N1CCC[C@@H]1C(=O)O)[C@@H](C)CC)[C@@H](C)CC)[C@@H](C)CC [DIR2] (H-IRIR[dP]IRIR[dP]-OH) | 194.0 (≈ 250 µg/mL) | 128 (≈ 165 µg/mL) | 128 (≈ 165 µg/mL) | >128 | >128 | 219.5 | 256 | >128 | >128 | >128 | >128 | >128 | >128 | – |
| CC[C@H](C)[C@H](N)C(=O)N[C@@H](CCCNC(=N)N)C(=O)N[C@H](C(=O)N[C@@H](CCCNC(=N)N)C(=O)N[C@H](C(=O)N[C@@H](CCCNC(=N)N)C(=O)N1CCC[C@@H]1C(=O)N[C@H](C(=O)N[C@@H](CCCNC(=N)N)C(=O)N[C@H](C(=O)N[C@@H](CCCNC(=N)N)C(=O)N[C@H](C(=O)N[C@@H](CCCNC(=N)N)C(=O)N1CCC[C@@H]1C(=O)O)[C@@H](C)CC)[C@@H](C)CC)[C@@H](C)CC)[C@@H](C)CC)[C@@H](C)CC [DIR3] (H-IRIRIR[dP]IRIRIR[dP]-OH) | – | 4 (≈ 7.31 µg/mL) | 4 (≈ 7.31 µg/mL) | 8 (≈ 14.6 µg/mL) | 64 (≈ 117 µg/mL) | – | 45.3 | >128 | 64 (≈ 117 µg/mL) | 4 (≈ 7.31 µg/mL) | 128 (≈ 234 µg/mL) | 8 (≈ 14.6 µg/mL) | 16 (≈ 29.3 µg/mL) | – |
| Colistin Sulfate [CS, reference compound] | 0.8 | – | – | – | – | 5.9 | – | – | – | – | – | – | – | MIC (E. coli UB 1005; E. coli UB 1005, MHB, 10^5 CFU/mL, 20 h 37 °C, repeated three times): 0.5 µM; MIC (E. coli 25922; E. coli 25922, MHB, 10^5 CFU/mL, 0.5–128 μM peptide, 20 h 37 °C, OD 492 nm, repeated three times): 0.5 µM; MIC (S. aureus 29213; S. aureus 29213, MHB, 10^5 CFU/mL, 20 h 37 °C, repeated three times): 64 µM; MIC (S. aureus 25923; S. aureus 25923, MHB, 10^5 CFU/mL, 20 h 37 °C, repeated three times): 64 µM; GM MIC (range of Gram-negative and Gram-positive geometric means) [1]: 0.8 to 76.1 µM; pGM (+), geometric mean of the MICs against gram-positive strains ([2]; 4 gram-positive strains, >128 apparently counted as 256): 76.1 µM; MIC (MRSA43300; MRSA43300, MHB, 10^5 CFU/mL, 20 h 37 °C, repeated three times): 64 µM; MIC (S. typhimurium 7731; S. typhimurium 7731, MHB, 10^5 CFU/mL, 20 h 37 °C, repeated three times): 0.5 µM; MIC (S. epidermidis 12228; S. epidermidis 12228, MHB, 10^5 CFU/mL, 20 h 37 °C, repeated three times): 128 µM; MIC (P. aeruginosa 27853; P. aeruginosa 27853, MHB, 10^5 CFU/mL, 20 h 37 °C, repeated three times, read-out: MIC): 0.5 µM; MIC (S. typhimurium 14028; S. typhimurium 14028, MHB, 10^5 CFU/mL, 20 h 37 °C, repeated three times): 4 µM |
| IRIRIRPIRIRIRP [IR3] | 12.1 | 8 | 16 | 64 | 64 | – | 90.5 | >128 | 64 | 16 | >128 | 8 | 16 | – |
| IRIRPIRIRP [IR2] | 256 | >128 | >128 | >128 | >128 | 256 | 256 | >128 | >128 | >128 | >128 | >128 | >128 | – |

From paper PMC6928678, “Simplified Head-to-Tail Cyclic Polypeptides as Biomaterial-Associated Antimicrobials with Endotoxin Neutralizing and Anti-Inflammatory Capabilities” (International Journal of Molecular Sciences, 2019)
